According to patent US10526581B2, “Modulation of cardiac stem-progenitor cell differentiation, assays and uses thereof” (priority 2013, dated 2020):

System: mouse heart
Test: ISO injury in CM-recombined MerCreMer-ZEG and MerCreMer:RYP mice (lineage tracing of new CMs)
Type: in vivo
Settings: 28 days after ISO
Excerpt: BrdU labeling and Ki67 expression by itself cannot establish whether the new CMs are generated by the reported division of pre-existing adult CMs or by the activation and ensuing differentiation of a stem-progenitor cell compartment. To specifically address this issue, we traced the cell lineage of the new CMs. We generated double-transgenic mice (MerCreMer-ZEG) (Hsieh et al., 2007; Loffredo et al., 2011) in which, upon tamoxifen administration, β-galactosidase (β-Gal) is replaced by enhanced green fluorescent protein (GFP) exclusively in cardiac cells which have already activated the Myh6 gene (and, therefore, the transgene carrying the cre recombinase gene) which are either post-mitotic CMs or amplifying cells already committed to the CM lineage (i.e., immature myocytes/myocyte precursors).
In tamoxifen-naïve MerCreMer-ZEG mice, 99±0.2% of the CMs express β-Gal and are negative for GFP (the leakage of the Myh6-Cre construct in these animals is ˜0.2%). Tamoxifen correctly switched β-Gal to GFP in CMs (FIG. 15A-C). […] In this setting, if new CMs (BrdU^pos) originated from division of pre-existing CMs they should be more GFP^pos and the ratio between GFP^pos and β-Gal^pos CMs should remain unchanged at ˜80/20. If instead, the new CMs originate from non-CM cells, they should be β-Gal^pos and produce a “dilution” of GFP^pos CMs with a decrease of the GFP^pos/β-Gal^pos CM ratio (FIG. 15A).
In mice, ISO injection caused the same type of myocardial damage and LV dysfunction shown in rats, resulting in c-kit^poseCSC activation, CM regeneration and recovery of cardiac function (FIG. 22). […] These numbers match the CM loss produced by ISO administration (FIG. 22). In contrast, we detected very few newly generated, BrdU^posβ-Gal^pos, CMs (0.15±0.05%) in saline-treated CTRL mice (FIG. 15E). […] This discrepancy might be due to the different injury models used. In contrast to coronary ligation, although ISO kills a large number of CMs, because it leaves a patent coronary circulation the eCSCs are spared and provides a more physiologic test for the endogenous reparative potential of the adult heart (Ellison et al., 2007b). Furthermore, during the two-week administration of tamoxifen for Cre induction it would be expected that some eCSCs have committed to the myogenic lineage and activated the Myh6 gene with recombination of the transgene and generation of […], as reported by Dong et al. (2012).
Finally, we dissociated to single cells CMs from the hearts of double transgenic MerCreMer:RYP mice obtained by crossing MerCreMer with R26R-EYFP (RYP) mice (Qian et al., 2012), in which the CMs were labeled with the enhanced yellow fluorescent protein (EYFP) upon tamoxifen injection. […]

CC(C)NCC(O)c1ccc(O)c(O)c1 (stereo not shown) [ISO, isoproterenol]
BrdU^pos CMs (MerCreMer/ZEG mice): 9±2% | GFP^pos CMs (MerCreMer/ZEG mice): 73.5±3.5% | β-Gal^pos CMs (MerCreMer/ZEG mice): 26.5±2% | YFP-marked endogenous CMs (MerCreMer:RYP mice, apex (and sub-endocardium)): ~72%
